This is an account of results in US6153587A, “Conformationally constrained LH-RH analogues, their uses and pharmaceutical compositions containing them” (Laboratoire THERAMEX, priority 1996, dated 2000).

For this test, the target named is T1, LH-RH receptors (Rattus norvegicus, UniProt P30969).
T1 construct: from tissue; host or cells: rat pituitary membrane fraction (female Sprague Dawley)
T1 sequence (P30969 1-327): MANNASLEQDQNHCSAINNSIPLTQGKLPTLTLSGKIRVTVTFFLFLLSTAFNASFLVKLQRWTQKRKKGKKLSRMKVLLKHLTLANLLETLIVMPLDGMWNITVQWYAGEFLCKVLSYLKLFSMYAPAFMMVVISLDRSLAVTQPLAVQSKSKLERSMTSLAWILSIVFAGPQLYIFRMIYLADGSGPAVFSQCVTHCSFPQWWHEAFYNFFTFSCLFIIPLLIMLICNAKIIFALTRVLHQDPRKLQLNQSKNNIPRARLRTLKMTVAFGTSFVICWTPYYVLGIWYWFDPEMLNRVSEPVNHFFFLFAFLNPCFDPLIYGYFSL
Kind of test: Affinity for LH-RH receptors: [125I]-buserelin binding to rat pituitary membranes. The conditions noted are these: 2 hours at 4° C., 20 to 70 μM [125I]-buserelin, Ki from IC50 by Cheng-Prusoff, read-out: pKi (affinity for LH-RH receptors) (converted). As for the experimental part: This affinity has been determined according to the following method:
Pituitaries from female Sprague Dawley rats were removed and homogenized with a Potter homogenizer in a 25 mM HEPES buffer (pH 7.4) containing 0.32 M sucrose, 100 μg/l PMSF (phenylmethylsulfonylfluoride), 5.6 U/l aprotinin and 10,000 U/l bacitracin. The homogenates were centrifuged at 700 g for 10 minutes and the supernatants were further centrifuged at 12,500 g for 30 minutes. The pellets were homogenized and centrifuged as described above, in the same buffer but without sucrose.
All homogenization, centrifugation and subsequent incubation steps were carried out at 4° C.
The assay was terminated by filtration under suction (Brandel 96-well harvester) through Whatman GF/B glass fiber filters. […] Each compound was tested in at least 4 experiments.
Specific binding data were analysed according to Scatchard's method.
For each test compound, the inhibitory constant (Ki) was calculated from its IC50 according to the Cheng and Prussofs equation: Ki=IC50 /(1+[radioligand]/Kd). Ki was then transformed into pKi (=-log Ki) for final expression of affinity scales.

On to `CCNC(=O)[C@@H]1CCCN1C(=O)[C@H](CCCNC(=N)N)NC(=O)[C@H](CC(C)C)N1CC[C@@]2(CCCN2C(=O)[C@H](Cc2ccc(O)cc2)NC(=O)[C@H](CO)NC(=O)[C@H](Cc2c[nH]c3ccccc23)NC(=O)[C@H](Cc2c[nH]cn2)NC(=O)[C@@H]2CCC(=O)N2)C1=O` [Example 9, pGlu-His-Trp-Ser-Tyr-SPL-Leu-Arg-Pro-NEt], for which the Ki was 1.15 nM.
The value for `CCNC(=O)[C@@H]1CCCN1C(=O)[C@H](CCCNC(=N)N)NC(=O)[C@H](CC(C)C)N1CC[C@@]2(CCCN2C(=O)[C@H](Cc2ccc(O)cc2)NC(=O)[C@H](CO)NC(=O)[C@H](Cc2c[nH]c3ccccc23)NC(=O)[C@H](Cc2c[nH]cn2)NC(=O)CN(C)C(C)=O)C1=O` [Example 10, AcSar-His-Trp-Ser-Tyr-SPL-Leu-Arg-Pro-NEt] was 6.17 nM; that for `CCNC(=O)[C@@H]1CCCN1C(=O)[C@H](CCCNC(=N)N)NC(=O)[C@H](CC(C)C)N1CC[C@@]2(CCCN2C(=O)[C@H](Cc2ccc(O)cc2)NC(=O)[C@H](CO)NC(=O)[C@H](Cc2cccc3ccccc23)NC(=O)[C@H](Cc2c[nH]cn2)NC(=O)[C@@H]2CCC(=O)N2)C1=O` [Example 11, pGlu-His-INal-Ser-Tyr-SPL-Leu-Arg-Pro-NEt] was 0.427 nM; that for `CCNC(=O)[C@@H]1CCCN1C(=O)[C@H](CCCNC(=N)N)NC(=O)[C@H](CC(C)C)N1CC[C@@]2(CCCN2C(=O)[C@H](Cc2ccc(O)cc2)NC(=O)[C@H](CO)NC(=O)[C@H](Cc2ccc3ccccc3c2)NC(=O)[C@H](Cc2c[nH]cn2)NC(=O)[C@@H]2CCC(=O)N2)C1=O` [Example 12, pGlu-His-Nal-Ser-Tyr-SPL-Leu-Arg-Pro-NEt] was 0.105 nM.
For `CCNC(=O)[C@@H]1CCCN1C(=O)[C@H](CCCNC(=N)N)NC(=O)[C@H](CC(C)C)N1CC[C@@]2(CCCN2C(=O)[C@H](Cc2ccc(O)cc2)NC(=O)[C@H](CO)NC(=O)[C@H](Cc2ccc3ccccc3c2)NC(=O)[C@H](Cc2c[nH]cn2)NC(=O)CN(C)C(C)=O)C1=O` [Example 13, AcSar-His-Nal-Ser-Tyr-SPL-Leu-Arg-Pro-NEt] the value was 1.05 nM; for `CCNC(=O)[C@@H]1CCCN1C(=O)[C@H](CCCNC(=N)N)NC(=O)[C@H](CCC(C)C)N1CC[C@@]2(CCCN2C(=O)[C@H](Cc2ccc(O)cc2)NC(=O)[C@H](CO)NC(=O)[C@H](Cc2c[nH]c3ccccc23)NC(=O)[C@H](Cc2c[nH]cn2)NC(=O)[C@@H]2CCC(=O)N2)C1=O` [Example 15, pGlu-His-Trp-Ser-Tyr-SPL-Hol-Arg-Pro-NEt], 2.29 nM; for `CCNC(=O)[C@@H]1CCCN1C(=O)[C@H](CCCNC(=N)N)NC(=O)[C@H](CC(C)(C)C)N1CC[C@@]2(CCCN2C(=O)[C@H](Cc2ccc(O)cc2)NC(=O)[C@H](CO)NC(=O)[C@H](Cc2c[nH]c3ccccc23)NC(=O)[C@H](Cc2c[nH]cn2)NC(=O)[C@@H]2CCC(=O)N2)C1=O` [Example 16, pGlu-His-Trp-Ser-Tyr-SPL-Npg-Arg-Pro-NEt], 0.55 nM.
As to `CCNC(=O)[C@@H]1CCCN1C(=O)[C@H](CCCNC(=N)N)NC(=O)[C@@H](N1CC[C@@]2(CCCN2C(=O)[C@H](Cc2ccc(O)cc2)NC(=O)[C@H](CO)NC(=O)[C@H](Cc2c[nH]c3ccccc23)NC(=O)[C@H](Cc2c[nH]cn2)NC(=O)[C@@H]2CCC(=O)N2)C1=O)C(C)(C)C` [Example 17, pGlu-His-Trp-Ser-Tyr-SPL-Tle-Arg-Pro-NEt], the Ki was 1.78 nM.
In the case of `CCCC[C@@H](C(=O)N[C@@H](CCCNC(=N)N)C(=O)N1CCC[C@H]1C(=O)NCC)N1CC[C@@]2(CCCN2C(=O)[C@H](Cc2ccc(O)cc2)NC(=O)[C@H](CO)NC(=O)[C@H](Cc2c[nH]c3ccccc23)NC(=O)[C@H](Cc2c[nH]cn2)NC(=O)[C@@H]2CCC(=O)N2)C1=O` [Example 18, pGlu-His-Trp-Ser-Tyr-SPL-Nle-Arg-Pro-NEt], the Ki is 2.04 nM.
For `CC(C)C[C@@H](C(=O)N[C@@H](CCCNC(=N)N)C(=O)N1CCC[C@H]1C(=O)NCC(N)=O)N1CC[C@@]2(CCCN2C(=O)[C@H](Cc2ccc(O)cc2)NC(=O)[C@H](CO)NC(=O)[C@H](Cc2c[nH]c3ccccc23)NC(=O)[C@@H](Cc2ccccc2)NC(=O)[C@@H]2CCC(=O)N2)C1=O` [Example 20, pGlu-DPhe-Trp-Ser-Tyr-SPL-Leu-Arg-Pro-Gly-NH2] the value was 4.07 nM.
The value for `CC(C)C[C@@H](C(=O)N[C@@H](CCCNC(=N)N)C(=O)N1CCC[C@H]1C(=O)N[C@H](C)C(N)=O)N1CC[C@@]2(CCCN2C(=O)[C@H](Cc2ccc(O)cc2)NC(=O)[C@H](CO)NC(=O)[C@H](Cc2c[nH]c3ccccc23)NC(=O)[C@@H](Cc2ccccc2)NC(=O)[C@@H]2CCC(=O)N2)C1=O` [Example 21, pGlu-DPhe-Trp-Ser-Tyr-SPL-Leu-Arg-Pro-DAlaNH2] was 9.77 nM; that for `CC(=O)N[C@H](Cc1ccc2ccccc2c1)C(=O)N[C@H](Cc1ccc(Cl)cc1)C(=O)N[C@H](Cc1c[nH]c2ccccc12)C(=O)N[C@@H](CO)C(=O)N[C@@H](Cc1ccc(O)cc1)C(=O)N1CCC[C@@]12CCN([C@@H](CC(C)C)C(=O)N[C@@H](CCCNC(=N)N)C(=O)N1CCC[C@H]1C(=O)N[C@H](C)C(N)=O)C2=O` [Example 22, AcDNal-DpClPhe-DTrp-Ser-Tyr-SPL-Leu-Arg-Prx)-DAlaNH2] was 0.891 nM.
Take `CC(=O)N[C@H](Cc1ccc2ccccc2c1)C(=O)N[C@H](Cc1ccc(Cl)cc1)C(=O)N[C@H](Cc1cccnc1)C(=O)N[C@@H](CO)C(=O)N[C@@H](Cc1ccc(O)cc1)C(=O)N1CCC[C@@]12CCN([C@@H](CC(C)C)C(=O)N[C@@H](CCCNC(=N)N)C(=O)N1CCC[C@H]1C(=O)N[C@H](C)C(N)=O)C2=O` [Example 23, AcDNal-DpClPhe-DPal-Ser-Tyr-SPL-Leu-Arg-Pro-DAlaNH2]: the Ki is 0.155 nM.
For `CC(=O)N[C@H](Cc1ccc2ccccc2c1)C(=O)N[C@H](Cc1ccc(Cl)cc1)C(=O)N[C@H](Cc1csc2ccccc12)C(=O)N[C@@H](CO)C(=O)N[C@@H](Cc1ccc(O)cc1)C(=O)N1CCC[C@@]12CCN([C@@H](CC(C)C)C(=O)N[C@@H](CCCNC(=N)N)C(=O)N1CCC[C@H]1C(=O)N[C@H](C)C(N)=O)C2=O` [Example 24, AcDNal-DpClPhe-DBal-Ser-Tyr-SPL-Leu-Arg-Pr-DAlaNH2] the value was 0.251 nM; for `CC(=O)N[C@H](Cc1ccc2ccccc2c1)C(=O)N[C@H](Cc1ccc(Cl)cc1)C(=O)N[C@H](Cc1cccnc1)C(=O)N[C@@H](CO)C(=O)N[C@@H](Cc1ccc(O)cc1)C(=O)N1CCC[C@@]12CCN([C@@H](CC(C)(C)C)C(=O)N[C@@H](CCCNC(=N)N)C(=O)N1CCC[C@H]1C(=O)N[C@H](C)C(N)=O)C2=O` [Example 25, AcDNal-DpClPhe-DPal-Ser-Tyr-SPL-Npg-Arg-Pro-DAlaNH2], 0.245 nM.
For `CC(=O)N[C@H](Cc1ccc2ccccc2c1)C(=O)N[C@H](Cc1ccc(Cl)cc1)C(=O)N[C@H](Cc1cccnc1)C(=O)N[C@@H](CO)C(=O)N[C@@H](CCCCNC(=O)c1cccnc1)C(=O)N1CCC[C@@]12CCN([C@@H](CC(C)(C)C)C(=O)N[C@@H](CCCNC(=N)N)C(=O)N1CCC[C@H]1C(=O)N[C@H](C)C(N)=O)C2=O` [Example 26, AcDNal-DpClPhe-DPal-Ser-NicLys-SPL-Npg-Arg-Pro-DAlaNH2] the value was 0.263 nM.
For `CC(=O)N[C@H](Cc1ccc2ccccc2c1)C(=O)N[C@H](Cc1ccc(Cl)cc1)C(=O)N[C@H](Cc1cccnc1)C(=O)N[C@@H](CO)C(=O)N[C@@H](CCCCNC(C)C)C(=O)N1CCC[C@@]12CCN([C@@H](CC(C)(C)C)C(=O)N[C@@H](CCCNC(=N)N)C(=O)N1CCC[C@H]1C(=O)N[C@H](C)C(N)=O)C2=O` [Example 27, AcDNal-DpCtPhe-DPal-Ser-IprLys-SPL-Npg-Arg-Pro-DAlaNH2] the value was 0.0977 nM.
`CC(=O)N[C@H](Cc1ccc2ccccc2c1)C(=O)N[C@H](Cc1ccc(Cl)cc1)C(=O)N[C@H](Cc1cccnc1)C(=O)N[C@@H](CO)C(=O)N[C@@H](Cc1ccc(O)cc1)C(=O)N1CCC[C@@]12CCN([C@@H](CC(C)(C)C)C(=O)N[C@@H](CCCCNC(C)C)C(=O)N1CCC[C@H]1C(=O)N[C@H](C)C(N)=O)C2=O` [Example 28, AcDNal-DpCtPhe-DPal-Ser-Tyr-SPL-Npg-IprLys-Pro-DAlaNH2]: the Ki is 0.309 nM.
The value for `CC(=O)N[C@H](Cc1ccc2ccccc2c1)C(=O)N[C@H](Cc1ccc(Cl)cc1)C(=O)N[C@H](Cc1cccnc1)C(=O)N[C@@H](CO)C(=O)N[C@@H](CCCCNC(=O)c1cccnc1)C(=O)N1CCC[C@@]12CCN([C@@H](CC(C)(C)C)C(=O)N[C@@H](CCCCNC(C)C)C(=O)N1CCC[C@H]1C(=O)N[C@H](C)C(N)=O)C2=O` [Example 29, AcDNal-DpClPhe-DPal-Ser-NicLys-SPL-Npg-IprLys-Pro-DAlaNH2] was 0.363 nM.
